Marks after values point to notes of the source that are not given here.
Legend:
[1] = system: PTZ-induced kindling in mice; test: PTZ-induced kindling test in mice (tonic and clonic convulsions kindled by once-daily pentylenetetrazole); format: in vivo, mice (adult male CD1); details: for antiepileptic effect in comparison experiment (in words): Tab. 2 comparison
Procedure: Adult male CD1 mice (Envigo, Italy 20-25 g weight at arrival), were used. The cages were brought into the experimental room the day before the experiment, for acclimatization purposes. Each treatment group consisted of 15 mice. Mice were fed a standard laboratory diet. Food and water were freely available. Room temperature and relative humidity were constantly kept at 22±2° C. and 55±15%, respectively, and a 12-hour light and 12-hour darkness cycles maintained.
Levetiracetam (batch P102-14050 supplied by Astatech), etiracetam (supplied by Shaanxi Swiden Biotech Co., Ltd. Catalog number E932970), or mixtures of 1 part levetiracetam and 1 part etiracetam (1-to-3 R-to-S-etiracetam), or of 1 part levetiracetam and 0.5 part etiracetam (1-to-5 R-to-S-etiracetam), were dissolved in 1% carboxymethylcellulose (CMC) solution at a formulation strength of 55 mg/mL and orally administered once per day. Compounds were administered every day, from day 1 to day 11, 60 min before PTZ (55 mg/kg i.p.). PTZ was dissolved in saline; following i.p. injection, seizures developed in vehicle-treated mice within about 20 minutes.
The test was performed according to Gower et al. (Eur. J. Pharmacol. 222, 1992, 193-203). Separate groups of male mice were administered orally once daily for 11 consecutive days with levetiracetam (10, 30, or 60 mg/kg p.o.); etiracetam (30 mg/kg p.o.); or 1-to-3 R-to-S-etiracetam (30 mg/kg p.o.); or 1-to-5 R-to-S-etiracetam, (30 mg/kg p.o.); or oral vehicle, 60 min prior to administration of PTZ (pentylenetetrazole, 55.0 mg/kg i.p.). Immediately after the PTZ injection, the mice were placed in individual cages and observed for tonic and clonic seizures.
A chi-square test was used to verify significance between two means of behavioral results. Data were analyzed by the Social Science Statistics Program. P values ≤0.05 were considered significant (link https://www.socscistatistics.com/tests/chisquare/default2.aspx).

[2] = system: electroshock-induced amnesia; details: sub-cutaneous injection; rat; cited from earlier work
[3] = Table 2 comparison, 30 mg/kg p.o. once daily 60 min before PTZ 55 mg/kg i.p., Day 1
[4] = Table 2 comparison, 30 mg/kg p.o. once daily 60 min before PTZ 55 mg/kg i.p., Day 2
[5] = Table 2 comparison, 30 mg/kg p.o. once daily 60 min before PTZ 55 mg/kg i.p., Day 3
[6] = Table 2 comparison, 30 mg/kg p.o. once daily 60 min before PTZ 55 mg/kg i.p., Day 4
[7] = Table 2 comparison, 30 mg/kg p.o. once daily 60 min before PTZ 55 mg/kg i.p., Day 5
[8] = Table 2 comparison, 30 mg/kg p.o. once daily 60 min before PTZ 55 mg/kg i.p., Day 6
[9] = Table 2 comparison, 30 mg/kg p.o. once daily 60 min before PTZ 55 mg/kg i.p., Day 7
[10] = Table 2 comparison, 30 mg/kg p.o. once daily 60 min before PTZ 55 mg/kg i.p., Day 8
[11] = Table 2 comparison, 30 mg/kg p.o. once daily 60 min before PTZ 55 mg/kg i.p., Day 9
[12] = Table 2 comparison, 30 mg/kg p.o. once daily 60 min before PTZ 55 mg/kg i.p., Day 10
[13] = Table 2 comparison, 30 mg/kg p.o. once daily 60 min before PTZ 55 mg/kg i.p., Day 11

CCC(C(N)=O)N1CCCC1=O (racemic) [etiracetam, 2-(2-oxopyrrolidin-1-yl)butanamide]
antiepileptic effect in comparison experiment (in words) ([1]; 30 mg/kg p.o.): ineffective
percentage of mice per group with clonic convulsions [1, 3]: 0%
percentage of mice per group with clonic convulsions [1, 4]: 6.6%
percentage of mice per group with clonic convulsions [1, 5]: 13.3%
percentage of mice per group with clonic convulsions [1, 6]: 26.6%
percentage of mice per group with clonic convulsions [1, 7]: 26.6%
percentage of mice per group with clonic convulsions [1, 8]: 46.6%
percentage of mice per group with clonic convulsions [1, 9]: 53.3%
percentage of mice per group with clonic convulsions [1, 10]: 66.6%
percentage of mice per group with clonic convulsions [1, 11]: 86.6%
percentage of mice per group with clonic convulsions [1, 12]: 93.3%
percentage of mice per group with clonic convulsions [1, 13]: 100%

CC[C@H](C(N)=O)N1CCCC1=O [R-etiracetam, (R)-2-(2-oxopyrrolidin-1-yl)butanamide]
potency relative to racemic etiracetam [2]: 10 fold

CC[C@@H](C(N)=O)N1CCCC1=O [levetiracetam, (S)-2-(2-oxopyrrolidin-1-yl)butanamide]
effect on PTZ-induced kindling (in words) ([1]; 10 mg/kg p.o., at the end of the treatment (day 11)): all mice showed tonic or clonic convulsions
antiepileptic effect in comparison experiment (in words) ([1]; 30 mg/kg p.o.): moderately effective
effect on PTZ-induced kindling (in words) ([1]; 30 mg/kg p.o., dose-response experiment (Tab. 1)): intermediate reduction of the effect
incidence of clonic convulsion in the first 6 days ([1]; 60 mg/kg p.o. once daily, days 1-6): ≤ 20%
effect on PTZ-induced kindling vs vehicle treatment group (in words) ([1]; 60 mg/kg p.o., eighth to eleventh day of treatment): statistically significant difference in the proportion of mice exhibiting seizures
percentage of mice per group with clonic convulsions ([1]; Table 1, 10 mg/kg p.o. once daily 60 min before PTZ 55 mg/kg i.p., Day 1): 6.6%
percentage of mice per group with clonic convulsions ([1]; Table 1, 10 mg/kg p.o. once daily 60 min before PTZ 55 mg/kg i.p., Day 2): 6.6%
percentage of mice per group with clonic convulsions ([1]; Table 1, 10 mg/kg p.o. once daily 60 min before PTZ 55 mg/kg i.p., Day 3): 20.0%
percentage of mice per group with clonic convulsions ([1]; Table 1, 10 mg/kg p.o. once daily 60 min before PTZ 55 mg/kg i.p., Day 4): 26.6%
percentage of mice per group with clonic convulsions ([1]; Table 1, 10 mg/kg p.o. once daily 60 min before PTZ 55 mg/kg i.p., Day 5): 26.6%
percentage of mice per group with clonic convulsions ([1]; Table 1, 10 mg/kg p.o. once daily 60 min before PTZ 55 mg/kg i.p., Day 6): 53.0%
percentage of mice per group with clonic convulsions ([1]; Table 1, 10 mg/kg p.o. once daily 60 min before PTZ 55 mg/kg i.p., Day 7): 53.3%
percentage of mice per group with clonic convulsions ([1]; Table 1, 10 mg/kg p.o. once daily 60 min before PTZ 55 mg/kg i.p., Day 8): 73.3%
percentage of mice per group with clonic convulsions ([1]; Table 1, 10 mg/kg p.o. once daily 60 min before PTZ 55 mg/kg i.p., Day 9): 86.6%
percentage of mice per group with clonic convulsions ([1]; Table 1, 10 mg/kg p.o. once daily 60 min before PTZ 55 mg/kg i.p., Day 10): 86.6%
percentage of mice per group with clonic convulsions ([1]; Table 1, 10 mg/kg p.o. once daily 60 min before PTZ 55 mg/kg i.p., Day 11): 100%
percentage of mice per group with clonic convulsions ([1]; Table 1, 30 mg/kg p.o. once daily 60 min before PTZ 55 mg/kg i.p., Day 1): 0%
percentage of mice per group with clonic convulsions ([1]; Table 1, 30 mg/kg p.o. once daily 60 min before PTZ 55 mg/kg i.p., Day 2): 6.6%
percentage of mice per group with clonic convulsions ([1]; Table 1, 30 mg/kg p.o. once daily 60 min before PTZ 55 mg/kg i.p., Day 3): 13.3%
percentage of mice per group with clonic convulsions ([1]; Table 1, 30 mg/kg p.o. once daily 60 min before PTZ 55 mg/kg i.p., Day 4): 20.0%
percentage of mice per group with clonic convulsions ([1]; Table 1, 30 mg/kg p.o. once daily 60 min before PTZ 55 mg/kg i.p., Day 5): 20.0%
percentage of mice per group with clonic convulsions ([1]; Table 1, 30 mg/kg p.o. once daily 60 min before PTZ 55 mg/kg i.p., Day 6): 26.6%
percentage of mice per group with clonic convulsions ([1]; Table 1, 30 mg/kg p.o. once daily 60 min before PTZ 55 mg/kg i.p., Day 7): 33.3%
percentage of mice per group with clonic convulsions ([1]; Table 1, 30 mg/kg p.o. once daily 60 min before PTZ 55 mg/kg i.p., Day 8): 46.6%
percentage of mice per group with clonic convulsions ([1]; Table 1, 30 mg/kg p.o. once daily 60 min before PTZ 55 mg/kg i.p., Day 9): 66.6%
percentage of mice per group with clonic convulsions ([1]; Table 1, 30 mg/kg p.o. once daily 60 min before PTZ 55 mg/kg i.p., Day 10): 66.6%
percentage of mice per group with clonic convulsions ([1]; Table 1, 30 mg/kg p.o. once daily 60 min before PTZ 55 mg/kg i.p., Day 11): 73.3%
percentage of mice per group with clonic convulsions ([1]; Table 1, 60 mg/kg p.o. once daily 60 min before PTZ 55 mg/kg i.p., Day 1): 0%
percentage of mice per group with clonic convulsions ([1]; Table 1, 60 mg/kg p.o. once daily 60 min before PTZ 55 mg/kg i.p., Day 2): 0%
percentage of mice per group with clonic convulsions ([1]; Table 1, 60 mg/kg p.o. once daily 60 min before PTZ 55 mg/kg i.p., Day 3): 6.6%
percentage of mice per group with clonic convulsions ([1]; Table 1, 60 mg/kg p.o. once daily 60 min before PTZ 55 mg/kg i.p., Day 4): 20.0%
percentage of mice per group with clonic convulsions ([1]; Table 1, 60 mg/kg p.o. once daily 60 min before PTZ 55 mg/kg i.p., Day 5): 20.0%
percentage of mice per group with clonic convulsions ([1]; Table 1, 60 mg/kg p.o. once daily 60 min before PTZ 55 mg/kg i.p., Day 6): 20.0%
percentage of mice per group with clonic convulsions ([1]; Table 1, 60 mg/kg p.o. once daily 60 min before PTZ 55 mg/kg i.p., Day 7): 26.6%
percentage of mice per group with clonic convulsions ([1]; Table 1, 60 mg/kg p.o. once daily 60 min before PTZ 55 mg/kg i.p., Day 8): 26.6^# %
percentage of mice per group with clonic convulsions ([1]; Table 1, 60 mg/kg p.o. once daily 60 min before PTZ 55 mg/kg i.p., Day 9): 33.3^# %
percentage of mice per group with clonic convulsions ([1]; Table 1, 60 mg/kg p.o. once daily 60 min before PTZ 55 mg/kg i.p., Day 10): 33.3^# %
percentage of mice per group with clonic convulsions ([1]; Table 1, 60 mg/kg p.o. once daily 60 min before PTZ 55 mg/kg i.p., Day 11): 40%
percentage of mice per group with clonic convulsions [1, 3]: 0%
percentage of mice per group with clonic convulsions [1, 4]: 0%
percentage of mice per group with clonic convulsions [1, 5]: 6.6%
percentage of mice per group with clonic convulsions [1, 6]: 13.3%
percentage of mice per group with clonic convulsions [1, 7]: 20.0%
percentage of mice per group with clonic convulsions [1, 8]: 26.6%
percentage of mice per group with clonic convulsions [1, 9]: 33.3%
percentage of mice per group with clonic convulsions [1, 10]: 46.6%
percentage of mice per group with clonic convulsions [1, 11]: 66.6%
percentage of mice per group with clonic convulsions [1, 12]: 73.3%
percentage of mice per group with clonic convulsions [1, 13]: 73.3%

Reference: US20220047548A1, “SYNERGISTIC COMPOSITIONS COMPRISING (R)-2-(2-OXOPYRROLIDIN-1-YL)BUTANAMIDE AND (S)-2-(2-e OXOPYRROLEDIN-1-YL)BUTANAMEDE IN A NON-RACEMIC RATIO” (Metys Pharmaceuticals AG, priority 2018, published 2022)
